Legend:
Assay type in all cases: cell-based
[1] = tested on: T-47D cells; experiment: Inhibition of cell proliferation in T-47D cells (CCK-8); conditions: 6 days treatment, CCK-8 cell viability
Summary of the method: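 T-47D cells (3,000/well) in RPMI-1640 with 10% FBS were exposed to a concentration range of PROTAC compounds for 6 days at 37 °C, 5% CO2. Viability read by CCK-8; IC50 fitted from inhibition rate.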

[2] = tested on: MCF-7 cells; experiment: Inhibition of cell proliferation in MCF-7 cells (CCK-8); conditions: MCF-7 cell proliferation, 6 days treatment
Summary of the method: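 MCF-7 cells, 800 per well in DMEM plus 10% FBS, exposed to graded PROTAC concentrations for 6 days at 37 °C, 5% CO2. Viability by CCK-8; IC50 fitted from inhibition rates.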

[3] = molecular target: T1, ERα (Homo sapiens, UniProt P03372); experiment: ERα degradation in T-47D cells (Western blot); conditions: 4 hours
T1 sequence (P03372 1-595): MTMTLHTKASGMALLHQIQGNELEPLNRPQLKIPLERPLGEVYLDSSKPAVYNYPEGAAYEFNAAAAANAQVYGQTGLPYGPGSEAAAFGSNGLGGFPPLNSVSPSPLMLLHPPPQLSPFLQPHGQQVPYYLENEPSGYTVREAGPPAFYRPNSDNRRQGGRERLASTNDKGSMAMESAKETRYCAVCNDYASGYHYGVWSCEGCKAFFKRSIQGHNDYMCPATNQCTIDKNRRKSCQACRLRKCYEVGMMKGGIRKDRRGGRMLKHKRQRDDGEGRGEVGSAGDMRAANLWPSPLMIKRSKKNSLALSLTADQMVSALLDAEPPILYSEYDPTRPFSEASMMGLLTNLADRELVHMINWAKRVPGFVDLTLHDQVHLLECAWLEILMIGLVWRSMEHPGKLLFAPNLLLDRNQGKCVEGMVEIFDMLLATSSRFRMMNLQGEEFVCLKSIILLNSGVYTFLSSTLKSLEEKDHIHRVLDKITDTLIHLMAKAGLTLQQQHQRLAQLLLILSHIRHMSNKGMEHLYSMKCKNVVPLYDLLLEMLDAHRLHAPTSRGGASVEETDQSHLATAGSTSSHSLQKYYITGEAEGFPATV
Summary of the method: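 T-47D cells at 3×10^5 cells/well were exposed to compound (final 0.15-1000 nM, DMSO) for 4 hours at 37°C and then lysed in RIPA. ERα was measured by Western blot (20 µg protein) with infrared imaging. The degradation rate was calculated from ERα/internal-reference grayscale ratios relative to control.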

[4] = molecular target: T1, ERα; experiment: ERα degradation in MCF-7 cells (Western blot); parameters: host or cells: MCF-7; conditions: 4 hours
Summary of the method: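 MCF-7 cells treated 4 h at 37 °C with compound at 0.15–1000 nM final. ERα in lysates measured by Western blot (20 µg protein), normalized to an internal reference protein; degradation rate calculated against control.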

Structure (SMILES) | IC50 [2] [nM] | Degradation rate of ERα in T-47D cells (%) ([3]; 1nM) | Degradation rate of ERα in T-47D cells (%) ([3]; 10nM) | Degradation rate of ERα in MCF-7 cells (%) ([4]; 1nM) | Degradation rate of ERα in MCF-7 cells (%) ([4]; 10nM) | IC50 ([1]; Homo sapiens, T47D, 144 h) [nM] | IC50 ([2]; Homo sapiens, MCF7, 144 h) [nM] | IC50 [1] [nM]
Cn1c(=O)n(C2CCC(=O)NC2=O)c2ccc3c(c21)C1(CCN(C[C@H]2CC[C@@H](OC4CCN(c5ccc([C@@H]6c7ccc(O)cc7CC[C@@H]6c6ccccc6)cc5)CC4)CC2)CC1)CO3 (stereo partly drawn) [ER-P-66, 3-(1'-(((1S,4s)-4-((1-(4-((1R,2S)-6-hydroxy-2-phenyl-1,2,3,4-tetrahydronaphthalen-1-yl)phenyl)piperidin-4-yl)oxy)cyclohexyl)methyl)-1-methyl-2-oxo-1,2-dihydro-3H,7H-spiro[benzofuro[4,5-d]imidazole-8,4'-piperidin]-3-yl)piperidine-2,6-dione] |  | 18 | 49 | 6 | 30 | 14 | 4100 | 
O=C1CCC(Nc2ccc3c(c2)COC[C@H]2CN(CC4CCC(OC5CCN(c6ccc([C@@H]7c8ccc(O)cc8CC[C@@H]7c7ccccc7)cc6)CC5)CC4)CCN32)C(=O)N1 (single isomer, unassigned) [ER-P-51] | 1260 | 14 | 12 | 5 | 1 |  |  | 74.3
Cn1c(=O)n(C2CCC(=O)NC2=O)c2ccc3c(c21)OCC31CCN(C2CCC3(CC2)CCN(c2ccc([C@@H]4c5ccc(O)cc5CC[C@@H]4c4ccccc4)cc2)CC3)CC1 (stereo partly drawn) [ER-P-16, 3-(1'-(3-(4-((1R,2S)-6-hydroxy-2-phenyl-1,2,3,4-tetrahydronaphthalen-1-yl)phenyl)-3-azaspiro[5.5]undecan-9-yl)-1-methyl-2-oxo-1,2-dihydro-3H,7H-spiro[benzofuro[6,7-d]imidazole-6,4'-piperidin]-3-yl)piperidine-2,6-dione] |  | 69 | 73 | 43 | 62 | 0.62 | 885 | 
O=C1CCC(N2Cc3c(ccc4c3OCC43CCC4(CCN(C5CCC6(CC5)CCN(c5ccc([C@@H]7c8ccc(O)cc8CC[C@@H]7c7ccccc7)cc5)CC6)CC4)CC3)C2=O)C(=O)N1 (stereo partly drawn) [ER-P-57] |  | 12 | 68 | 3 | 62 | 3.19 | 12.7 | 
Cn1c(=O)n(C2CCC(=O)NC2=O)c2ccc3c(c21)OCC31CCN(C2CC3(CCN(c4ccc([C@@H]5c6ccc(O)cc6CC[C@@H]5c5ccccc5)cc4)CC3)C2)CC1 (stereo partly drawn) [ER-P-15, 3-(1'-(7-(4-((1R,2S)-6-hydroxy-2-phenyl-1,2,3,4-tetrahydronaphthalen-1-yl)phenyl)-7-azaspiro[3.5]nonan-2-yl)-1-methyl-2-oxo-1,2-dihydro-3H,7H-spiro[benzofuro[6,7-d]imidazole-6,4'-piperidin]-3-yl)piperidine-2,6-dione] |  | 44 | 31 | 22 | 26 |  | 2980 | 0.65
Cn1c(=O)n(C2CCC(=O)NC2=O)c2cc3c(cc21)C1(CCN(C2CCN(C(=O)C4CCN(c5ccc([C@@H]6c7ccc(O)cc7CC[C@@H]6c6ccccc6)cc5)CC4)CC2)CC1)CO3 (stereo partly drawn) [ER-P-14, 3-(1'-(1-(1-(4-((1R,2S)-6-hydroxy-2-phenyl-1,2,3,4-tetrahydronaphthalen-1-yl)phenyl)piperidine-4-carbonyl)piperidin-4-yl)-1-methyl-2-oxo-1,2-dihydro-3H,6H-spiro[benzofuro[5,6-d]imidazole-7,4'-piperidin]-3-yl)piperidine-2,6-dione] |  | 64 | 61 | 69 | 63 | 0.81 | 34.6 | 

Further lines, with some results ahead:

IC50 [2] [nM] | Degradation rate of ERα in T-47D cells (%) ([3]; 1nM) | Degradation rate of ERα in T-47D cells (%) ([3]; 10nM) | Degradation rate of ERα in MCF-7 cells (%) ([4]; 1nM) | Degradation rate of ERα in MCF-7 cells (%) ([4]; 10nM) | IC50 ([1]; Homo sapiens, T47D, 144 h) [nM] | IC50 ([2]; Homo sapiens, MCF7, 144 h) [nM] | Structure (SMILES) | IC50 [1] [nM]
731 | 35 | 55 | 6 | 36 |  |  | COc1cc2c(cc1C(=O)N[C@H]1CCC(=O)NC1=O)OCC[C@H]1CN(CC3CCC(OC4CCN(c5ccc([C@@H]6c7ccc(O)cc7CC[C@@H]6c6ccccc6)cc5)CC4)CC3)CCN21 (stereo partly drawn) [ER-P-46, (S)-N-((S)-2,6-dioxopiperidin-3-yl)-3-(((1S,4R)-4-((1-(4-((1R,2S)-6-hydroxy-2-phenyl-1,2,3,4-tetrahydronaphthalen-1-yl)phenyl)piperidin-4-yl)oxy)cyclohexyl)methyl)-10-methoxy-2,3,4,4a,5,6-hexahydro-1H-benzo [b]pyrazino[1,2-d][1,4]oxazepine-9-carboxamide] | 1.17
 | 51 | 77 | 24 | 57 | 1.63 | 8.53 | O=C1CCC(N2Cc3c(ccc4c3OCC43CCC4(CC3)CN(C3CCC5(CC3)CN(c3ccc([C@@H]6c7ccc(O)cc7CC[C@@H]6c6ccccc6)cc3)C5)C4)C2=O)C(=O)N1 (stereo partly drawn) [ER-P-10, 3-(1-(2-(4-((1R,2S)-6-hydroxy-2-phenyl-1,2,3,4-tetrahydronaphthalen-1-yl)phenyl)-2-azaspiro[3.5]nonan-7-yl)-6'-oxo-6',8'-dihydro-2'H,7'H-dipyrazole[azetidine-3,1'-cyclohexane-4',3"-furo[2,3-e]isoindol]-7'-yl)piperidine-2,6-dione] | 
 | 58 | 70 | 43 | 40 | 0.51 | 125 | Cn1c(=O)n(C2CCC(=O)NC2=O)c2cc3c(cc21)C1(CCN(C(=O)C2CN(CC4CCN(c5ccc([C@@H]6c7ccc(O)cc7CC[C@@H]6c6ccccc6)cc5)CC4)C2)CC1)CO3 (stereo partly drawn) [ER-P-26] | 
 | 6 | 20 | 28 | 13 | 92.5 | 2990 | O=C1CC[C@H](NC(=O)c2cc3c(cc2F)N2CCN(C[C@H]4CC[C@@H](OC5CCN(c6ccc([C@@H]7c8ccc(O)cc8CC[C@@H]7c7ccccc7)cc6)CC5)CC4)C[C@@H]2CO3)C(=O)N1 [ER-P-67, (R)-N-((S)-2,6-dioxopiperidin-3-yl)-9-fluoro-3-(((1S,4S)-4-((1-(4-((1R,2S)-6-hydroxy-2-phenyl-1,2,3,4-tetrahydronaphthalen-1-yl)phenyl)piperidin-4-yl)oxy)cyclohexyl)methyl)-1,2,3,4,4a,5-hexahydrobenzo[b]pyrazi no[1,2-d][1,4]oxazine-8-carboxamide] | 
3730 | -11 | 30 | -12 | 23 |  |  | COc1cc2c(cc1C(=O)N[C@H]1CCC(=O)NC1=O)N(C)C[C@H]1CN(CC3CCC(OC4CCN(c5ccc([C@@H]6c7ccc(O)cc7CC[C@@H]6c6ccccc6)cc5)CC4)CC3)CCN21 (stereo partly drawn) [ER-P-49, (R)-N-((S)-2,6-dioxopiperidin-3-yl)-3-(((1S,4S)-4-((1-(4-((1R,2S)-6-hydroxy-2-phenyl-1,2,3,4-tetrahydronaphthalen-1-yl)phenyl)piperidin-4-yl)oxy)cyclohexyl)methyl)-9-methoxy-6-methyl-2,3,4,4a,5,6-hexahydro-1H-pyrazino[1,2-a]quinoxaline-8-carboxamide] | 1.17
 | 6 | 6 | -2 | 7 | 248 | 854 | CN(c1ccc2c(c1)COC[C@H]1CN(CC3CCC(OC4CCN(c5ccc([C@@H]6c7ccc(O)cc7CC[C@@H]6c6ccccc6)cc5)CC4)CC3)CCN21)C1CCC(=O)NC1=O (stereo partly drawn) [ER-P-52, 3-(((R)-3-((4-((1-(4-((1R,2S)-6-hydroxy-2-phenyl-1,2,3,4-tetrahydronaphthalen-1-yl)phenyl)piperidin-4-yl)oxy)cyclohexyl)methyl)-1,2,3,4,4a,5-hexahydro-7H-benzo[e]pyrazino[2,1-c][1,4]oxazepin-9-yl)(methyl)amino)piperidine-2,6-dione] | 

From patent EP4722219A1 (Gan & Lee Pharmaceuticals Co., Ltd., priority 2023, dated 2024)
